In publication PMC12138827, “Molecular Modeling and In Vitro Evaluation of Thioureas and Arylthioureas as Urease Inhibitors” (ACS Omega, 2025):
Values joined by “and” are separate entries in the source; they are usually repeats but may differ in a detail not shown here. Equal entries are not always repeated. “Also recorded” adds a separate entry of the source. Where two headings read alike, the source gives them in different places. Marks after values point to notes of the source that are not given here.

How the values were obtained:
[1] = target: T1, C. ensiformis urease (CEU) (Canavalia ensiformis, UniProt P07374); test: biochemical; details: triplicate; for %I ± SD (inhibitory percentage against CEU): test substance at 2.00 mM; for inhibition at 2000 µM: read-out: %I ± SD (inhibitory percentage against CEU), test substance at 2.00 mM; for IC50: 0.2-2.0 mM
T1 construct: purchased Merck (Sigma-Aldrich) Jack bean type III (CAS 9002-13-5)
T1 sequence (P07374 whole entry, looked up): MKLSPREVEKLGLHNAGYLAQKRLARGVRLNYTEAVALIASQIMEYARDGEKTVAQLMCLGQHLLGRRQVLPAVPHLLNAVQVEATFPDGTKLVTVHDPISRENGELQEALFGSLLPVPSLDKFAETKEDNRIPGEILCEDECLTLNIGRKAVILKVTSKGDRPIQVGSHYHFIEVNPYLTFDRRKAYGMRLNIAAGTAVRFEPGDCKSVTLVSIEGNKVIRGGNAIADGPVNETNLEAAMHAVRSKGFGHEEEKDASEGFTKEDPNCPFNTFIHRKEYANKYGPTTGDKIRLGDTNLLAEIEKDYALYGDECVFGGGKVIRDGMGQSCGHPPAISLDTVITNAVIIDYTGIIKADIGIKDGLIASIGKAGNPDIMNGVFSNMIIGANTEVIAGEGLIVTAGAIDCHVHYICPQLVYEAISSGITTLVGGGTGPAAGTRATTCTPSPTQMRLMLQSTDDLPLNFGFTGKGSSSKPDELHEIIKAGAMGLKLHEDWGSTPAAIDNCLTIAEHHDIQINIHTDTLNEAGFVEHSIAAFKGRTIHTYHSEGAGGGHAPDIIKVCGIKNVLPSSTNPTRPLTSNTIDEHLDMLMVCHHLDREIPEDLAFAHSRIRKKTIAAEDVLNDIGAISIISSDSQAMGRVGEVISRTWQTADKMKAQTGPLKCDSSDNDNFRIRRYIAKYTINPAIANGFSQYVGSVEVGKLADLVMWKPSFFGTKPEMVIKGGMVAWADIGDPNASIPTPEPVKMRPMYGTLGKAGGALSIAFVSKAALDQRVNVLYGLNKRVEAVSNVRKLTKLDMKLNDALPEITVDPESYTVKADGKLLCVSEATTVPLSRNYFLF
Description: The in vitro inhibitory activity of C. ensiformis urease was conducted using the indophenol reaction, also known as the Berthlot Reaction. Commercially purchased urease from Merck (Sigma-Aldrich), Jack bean type III (CAS 9002–13–5), was utilized, and the methodology was adapted from Khan et al. (2017).
(§1) The assays were performed in triplicate on a 96-well plate, as described by our research group. , The procedure involved adding 100 μL of urea (10 mM), 55.0 μL of sodium phosphate buffer solution (100 mM, pH 7.4) supplemented with EDTA (1 mM), and 10 μL of the test substance at 2.00 mM for inhibition percentage assays, previously dissolved in methanol. Subsequently, 25.0 μL of urease enzyme solution (0.0035 mM) was added, and the reaction mixture was incubated at 45–50 °C for 30 min. After incubation, 40.0 μL of phenol reagent (1% phenol and 0.05% sodium nitroprusside) and 40.0 μL of alkaline reagent (1.0% NaOH and […]) were added. The reaction rested for 15 min, and the absorbance was read at 630 nm using a Loccus model LMR-96i UV–visible microplate reader.
Thiourea (2.00 mM) served as the standard inhibitor.
To determine half of the maximum inhibitory concentration (IC50), substances LaSMMed 42, LaSMMed 122–126, and the thiourea control were tested at different concentrations (0.2, 0.4, 0.8, 1.0, 1.4, and 2.0 mM). The IC50 values were calculated using GraphPad Prism 8.0.2, employing a dose–response curve.

[2] = target: T1, C. ensiformis urease (CEU); test: Enzyme kinetics on C. ensiformis urease (Michaelis–Menten, Lineweaver–Burk plots); type: biochemical; details: for Vmax: CEU kinetic parameter with the compound; for Ki: Lineweaver–Burk, compound 0.50 and 0.25 mM; for Alfa (α): mixed inhibitors; for Inhibition type (mechanism of action): Lineweaver–Burk plots
Description: Enzyme kinetics were studied following previous work by our research group. , The same reaction mixture was applied to determine inhibitory activity, and the IC50 was adopted to study enzyme kinetics in C. ensiformis urease. However, only two concentrations of the test substance were used (0.50 and 0.25 mM), along with five different concentrations of urea substrate (0.66, 1.00, 1.50, 2.00, and 2.50 mM) for each sample. The absorbance of the reaction mixture was recorded at 630 nm using a Loccus model LMR-96i UV–visible microplate reader. Michaelis–Menten (nonlinear regression) and Lineweaver–Burk (linear regression) plots, as well as the determination of inhibition constants (K i ), K m, α, and V max, were made using GraphPad Prism software (version 8.0.2). Enzymatic activity was calculated using an ammonium chloride calibration curve. One unit of enzymatic activity (U) is the amount of enzyme capable of releasing 1 μmol of ammonia per minute of reaction (U = 1 μmol NH4 ^+ min^–1 μmol enzyme^–1). The assays were performed in triplicate.

[3] = Solubility under the urease assay conditions; type: physicochemical; details: urease assay medium
Description: as §1

Compound | %I ± SD (inhibitory percentage against CEU) [1] | inhibition at 2000 µM [1] [%] | IC50 ([1]; IC50 ± SD) | Vmax [2] [µmol/min] | Ki [2] | other results
Cc1ccc(NC(=S)NC(=O)/C=C/c2ccccc2)cc1 [LaSMMed 46] | 13.04 ± 2.46^f % | – | – | – | – | –
CNC(=S)NC(=O)/C=C/c1ccccc1 [LaSMMed 37] | 33.53 ± 1.06^c % | 30 to 40 | – | – | – | –
NC(=S)Nc1ccc(Br)cc1 [LaSMMed 123] | – | 86.18 ± 0.75 | 493 ± 7 µM | 741.30 | 110 µM | Alfa (α) [2]: 9.75
COc1ccc(NC(=S)NC(=O)/C=C/c2ccccc2)cc1 [LaSMMed 44] | – | – | – | – | – | Solubility under the tested conditions [3]: insoluble
Cc1ccc(NC(N)=S)cc1 [compound 126] | – | – | ~575 µM | – | ~100 µM | –
NC(=S)NC(=O)/C=C/c1ccccc1 [LaSMMed 42] | 82.37 ± 0.34^d % | 82 | – | – | – | –
COc1ccc(NC(N)=S)cc1 [LaSMMed 125] | 84.56 ± 1.23^b % | 84 | 510 ± 19 µM | 737.50 | 80 µM | Inhibition type (mechanism of action) [2]: competitive inhibition; also recorded: competitive inhibitor
Cc1ccc(NC(N)=S)cc1 [LaSMMed 126] | – | 87.86 ± 0.48 | 568 ± 22 µM | 732.30 | 100 µM | Inhibition type (mechanism of action) [2]: mixed-type inhibition; Alfa (α) [2]: 4.88
NC(=S)Nc1ccc([N+](=O)[O-])cc1 [compound 124] | – | – | – | – | ~100 µM | –
NC(=S)Nc1ccc(Cl)cc1 [LaSMMed 122] | – | 87.6 ± 1.72 | ~575 µM and 575 µM | 735.50 | 90 µM and 89 µM | Alfa (α) [2]: 6.00
NC(=S)Nc1ccc([N+](=O)[O-])cc1 [LaSMMed 124] | – | 88.3 ± 0.26 | 464 ± 3 µM | 733.50 | 130 µM | Alfa (α) [2]: 6.13
NC(N)=S [Thiourea] | 84.12 ± 0.84^d % | – | – | – | – | IC50 ([1]; read-out: IC50 ± SD): 504 ± 25 µM; %I ± SD (inhibitory percentage against CEU) ([1]; listed as thiourea): 84%
O=C(/C=C/c1ccccc1)NC(=S)Nc1ccc(F)cc1 [LaSMMed 45] | 23.98 ± 1.44^e % | 24 | – | – | – | –
Cc1ccc(NC(=S)NC(=O)/C=C/c2ccccc2)cc1 [compound 46] | – | 13 | – | – | – | –
CCCCCCNC(=S)NC(=O)/C=C/c1ccccc1 [compound 40] | – | 30 to 40 | – | – | – | –
CCCCCCNC(=S)NC(=O)/C=C/c1ccccc1 [LaSMMed 40] | 39.34 ± 1.72^c % | – | – | – | – | –
